# Results taken from US11525165B2, “Method of selection of an IRE1-inhibitor therapy for patient suffering from cancer” (INSERM (INSTITUT NATIONAL DE LA SANTÉ ET DE LA RECHERCHE …, priority 2017, dated 2022).
# Tested on: U87 cells
# Test: miR-17 level under tunicamycin-induced ER stress
# Type: cell-based
# Conditions: data not shown
# Experimental: U87MG (ATCC) and U251MG (Sigma, St Louis, Mo., USA) cells were authenticated as recommended by AACR (http://aacrjournals.org/content/cell-line-authentication-information) and tested for the absence of mycoplasma using MycoAlert® (Lonza, Basel, Switzerland) or MycoFluor (Invitrogen, Carlsbad, Calif., USA). U87 cells (ATCC) were grown in DMEM glutamax (Invitrogen, Carlsbad, Calif., USA) supplemented with 10% FBS. U87 were stably transfected at MOI=0.3 with pCDH-CMV-MCS-EF1-Puro-copGFP (System biosciences) empty vector (EV), pCDH-CMV-MCS-EF1-Puro-copGFP containing IRE1alpha wild-type sequence (WT) or mutated sequence (P336L, A414T, S769F or Q780*). U87 cells were selected using 2 μg/mL puromycin and polyclonal populations were tested for GFP expression. Transfections of GBM primary cell lines with IRE1 WT and Q780* were performed using Lipofectamine LTX (ThermoFisher Scientific), according to the manufacturer's instructions. For microarray experiments, tunicamycin (purchased from Calbiochem (Merck KGaA, Darmstadt, Germany)) was used at […] for 16 hrs. Actinomycin D were purchased from Sigma-Aldrich (St Louis, Mo., USA) and used as indicated. […]
# Total RNA was prepared using the Trizol reagent (Invitrogen, Carlsbad, Calif., USA). Semi-quantitative analyses were carried out as previously described. […]
substance,measurement,value
tunicamycin,miR-17 degradation,led to further miR-17 degradation
